For 31 compounds, IC50 results are on record in patent US7858621B2 (Amorepacific Corporation, priority 2006, dated 2010).

SMILES strings stand for the structures. pIC50: −log10 of the molar value.

In general, pIC50 refers to −log10 of the IC50, conventionally taken in molar units.

For this experiment, the target named is T1, vanilloid receptor (Rattus norvegicus, UniProt O35433).
T1 construct: DRG nerve cells from the primary culture of 2 days were equilibrated; endogenous in cells; host or cells: primary culture of dorsal root ganglion neurons from neonatal SD rats
T1 sequence (O35433 whole entry): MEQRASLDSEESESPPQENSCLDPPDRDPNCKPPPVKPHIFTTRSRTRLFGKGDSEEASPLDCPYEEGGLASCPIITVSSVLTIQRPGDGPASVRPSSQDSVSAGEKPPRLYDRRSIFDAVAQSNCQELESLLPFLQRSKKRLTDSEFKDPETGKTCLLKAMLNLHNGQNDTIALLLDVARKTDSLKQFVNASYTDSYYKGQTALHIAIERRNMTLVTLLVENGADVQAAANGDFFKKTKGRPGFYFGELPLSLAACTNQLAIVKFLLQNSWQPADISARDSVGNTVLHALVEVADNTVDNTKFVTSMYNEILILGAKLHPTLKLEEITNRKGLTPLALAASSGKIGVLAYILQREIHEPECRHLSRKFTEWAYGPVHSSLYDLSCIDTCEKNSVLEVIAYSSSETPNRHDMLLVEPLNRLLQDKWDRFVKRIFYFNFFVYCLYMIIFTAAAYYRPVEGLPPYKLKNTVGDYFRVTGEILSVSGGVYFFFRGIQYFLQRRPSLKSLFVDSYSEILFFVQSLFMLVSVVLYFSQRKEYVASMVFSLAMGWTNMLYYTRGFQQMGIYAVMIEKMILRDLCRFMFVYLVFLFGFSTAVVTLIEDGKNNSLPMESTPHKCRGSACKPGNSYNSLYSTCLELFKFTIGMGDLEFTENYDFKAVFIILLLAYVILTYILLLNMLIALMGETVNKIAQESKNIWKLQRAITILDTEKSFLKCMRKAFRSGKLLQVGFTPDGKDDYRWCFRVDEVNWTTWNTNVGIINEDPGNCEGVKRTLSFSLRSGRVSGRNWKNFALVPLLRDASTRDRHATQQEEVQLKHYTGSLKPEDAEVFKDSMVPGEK
The experiment can be described thus: 45Ca influx test in cultured neonatal rat DRG neurons, inhibition of capsaicin response. The experiment is classed as cell-based. The note with it: neonatal rat DRG neurons, capsaicin 0.5 μM, 45Ca influx; read-out: Antagonist Calcium Uptake Test (IC50). Put shortly:
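45Ca influx measured by scintillation counting of SDS-eluted neurons after 10 min at room temperature with test compound, 0.5 μM capsaicin (final) and 10 μCi/ml 45Ca in Ca/Mg-free HEPES-HBSS pH 7.4. Cells: primary DRG neurons from newborn SD rats, cultured 2 days with NGF and Ara-C.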
With `CCCS(=O)(=O)c1nc(C(F)(F)F)ccc1C=CC(=O)NCc1ccc(NS(C)(=O)=O)c(C)c1` [Example 216, N-(4-Methanesulfonylamino-3-methyl-benzyl)-3-[2-(propane-1-sulfonyl)-6-trifluoromethyl-pyridin-3-yl]-acrylamide], the pIC50 is 5.70. In the case of `CCC(C)Nc1nc(C(F)(F)F)ccc1/C=C/C(=O)NCc1ccc(NS(C)(=O)=O)c(F)c1` (stereo not shown) [Example 123, 3-(2-sec-Butylamino-6-trifluoromethyl-pyridin-3-yl)-N-(3-fluoro-4-methanesulfonylamino-benzyl)-acrylamide], the negative logarithm of the IC50 (pIC50) was 7.03. For `C#Cc1cc(CNC(=O)/C=C/c2ccc(C(F)(F)F)nc2N2CCN(C)CC2)cc(F)c1NS(C)(=O)=O` [Example 64, N-(3-Ethynyl-5-fluoro-4-methanesulfonylamino-benzyl)-3-[2-(4-methyl-piperazin-1-yl)-6-trifluoromethyl-pyridin-3-yl]-acrylamide] the value was 5.19; for `CCC/C(=C\C(=O)N[C@H](C)c1cc(F)c(NS(C)(=O)=O)c(F)c1)c1ccc(C(F)(F)F)nc1CCC` [Example 278, (E)-3-(2-Propyl-6-trifluoromethyl-pyridin-3-yl)-hex-2-enoic acid [1-(3,5-difluoro-4-methanesulfonylamino-phenyl)-ethyl]-amide], 6.80; for `CCCNc1nc(C(F)(F)F)ccc1/C=C/C(=O)NCc1ccc(NS(C)(=O)=O)c(Cl)c1` [Example 254, N-(3-Chloro-4-methanesulfonylamino-benzyl)-3-(2-propylamino-6-trifluoromethyl)-pyridin-3-yl-acrylamide], 6.82. As for `C#Cc1cc(CNC(=O)/C=C/c2ccc(C(F)(F)F)nc2-c2ccccc2)cc(F)c1NS(C)(=O)=O` [Example 107, N-(3-Ethynyl-5-fluoro-4-methanesulfonylamino-benzyl)-3-(2-phenyl-6-trifluoromethyl-pyridin-3-yl)-acrylamide], the figure is 6.29; as for `CC(C)Oc1nc(C(F)(F)F)ccc1/C=C/C(=O)NCc1cc(F)c(NS(C)(=O)=O)c(C#N)c1` [Example 109, N-(3-Cyano-5-fluoro-4-methanesulfonylamino-benzyl)-3-(2-isopropoxy-6-trifluoromethyl-pyridin-3-yl)-acrylamide], 6.82.

With `CCCCCc1nc(C(F)(F)F)ccc1/C=C/C(=O)NCc1ccc(NS(C)(=O)=O)c(C)c1` [Example 198, N-(4-Methanesulfonylamino-3-methyl-benzyl)-3-(2-pentyl-6-trifluoromethyl)-pyridin-3-yl-acrylamide], the pIC50 was 7.27. For the compound `CS(=O)(=O)Nc1ccc(CNC(=O)/C=C/c2ccc(C(F)(F)F)nc2Oc2cccnc2)cc1F` [Example 81, N-(3-Fluoro-4-methanesulfonylamino-benzyl)-3-[2-(pyridin-3-yloxy)-6-trifluoromethyl-pyridin-3-yl]-acrylamide], the negative logarithm of the IC50 (pIC50) was 4.92. For `CCCCNc1nc(C(F)(F)F)ccc1/C=C/C(=O)N[C@H](C)c1ccc(NS(C)(=O)=O)c(F)c1` [Example 213, (R)—N-[1-(3-Fluoro-4-methanesulfonylamino-phenyl)-ethyl]-3-(2-butylamino)-6-trifluoromethyl-pyridin-3-yl-acrylamide] the value was 7.55.

Consider `CCCCOc1nc(C(F)(F)F)ccc1/C=C/C(=O)NCc1cc(F)c(NS(C)(=O)=O)c(C#N)c1` [Example 98, 3-(2-Butoxy-6-trifluoromethyl-pyridin-3-yl)-N-(3-cyano-5-fluoro-4-methanesulfonylamino-benzyl)-acrylamide], for which the pIC50 is 6.72. For the compound `O=C(/C=C/c1ccc(C(F)(F)F)nc1CCc1ccccc1)NCc1ccc(NS(=O)(=O)C(F)(F)F)cc1` [Example 279, 3-(2-Phenethyl-6-trifluoromethyl-pyridin-3-yl)-N-(4-trifluoromethanesulfonylamino-benzyl)-acrylamide], the pIC50 was 5.41.

As for `C#Cc1cc(CNC(=O)/C=C/c2ccc(C(F)(F)F)nc2COCC)cc(F)c1NS(C)(=O)=O` [Example 161, N-(3-Ethynyl-5-fluoro-4-methanesulfonylamino-benzyl)-3-(2-ethoxymethyl-6-trifluoromethyl-pyridin-3-yl)-acrylamide], the pIC50 was 6.26. `C#Cc1cc(CNC(=O)/C=C/c2ccc(C(F)(F)F)nc2Nc2ccccc2)cc(F)c1NS(C)(=O)=O` [Example 113, N-(3-Ethynyl-5-fluoro-4-methanesulfonylamino-benzyl)-3-(2-phenylamino-6-trifluoromethyl-pyridin-3-yl)-acrylamide]: the pIC50 was 6.57. As for `CS(=O)(=O)Nc1ccc(CNC(=O)COc2ccc(C(F)(F)F)nc2)cc1F` [Example 32, N-(3-Fluoro-4-methanesulfonylamino-benzyl)-2-(6-trifluoromethyl-pyridin-3-yloxy)-acetamide], the figure is less than 5.00; as for `CCCCc1nc(C(F)(F)F)ccc1/C=C/C(=O)NCc1ccc(NS(C)(=O)=O)c(C)c1` [Example 194, 3-(2-Butyl-6-trifluoromethyl-pyridin-3-yl)-N-(4-methanesulfonylamino-3-methyl-benzyl)-acrylamide], 7.12.

For `C#Cc1cc(CNC(=O)/C=C/c2ccc(C(F)(F)F)nc2C)cc(F)c1NS(C)(=O)=O` [Example 68, N-(3-Ethynyl-5-fluoro-4-methanesulfonylaminobenzyl)-3-(2-methyl-6-trifluoromethylpyridin-3-yl)acrylamide], the pIC50 is 5.89. As for `CCC(C)Nc1nc(C(F)(F)F)ccc1/C=C/C(=O)NCc1cc(C)c(NS(C)(=O)=O)c(F)c1` (stereo not shown) [Example 130, 3-(2-sec-Butylamino-6-trifluoromethyl-pyridin-3-yl)-N-(3-fluoro-4-methanesulfonylamino-5-methyl-benzyl)-acrylamide], the figure is 7.27; as for `C#Cc1cc(CNC(=O)/C=C/c2ccc(C(F)(F)F)nc2C#CCN(CC)CC)cc(F)c1NS(C)(=O)=O` [Example 190], 5.64; as for `CS(=O)(=O)Nc1ccc(CNC(=O)/C=C/c2ccc(C(F)(F)F)nc2Oc2ccccc2)cc1F` [Example 132, N-(3-Fluoro-4-methanesulfonylamino-benzyl)-3-(2-phenoxy-6-trifluoromethyl-pyridin-3-yl)-acrylamide], less than 5.52. For `C#Cc1cc(CNC(=O)/C=C(\CCC)c2ccc(C(F)(F)F)nc2CCC)cc(F)c1NS(C)(=O)=O` [Example 276] the value was 6.62; for `CS(=O)(=O)Nc1ccc(CNC(=O)/C=C/c2ccc(C(F)(F)F)nc2N2CCC(O)C2)cc1F` (stereo not shown) [Example 56, N-(3-Fluoro-4-methanesulfonylamino-benzyl)-3-[2-(3-hydroxy-pyrrolidin-1-yl)-6-trifluoromethyl-pyridin-3-yl]-acrylamide], less than 5.00. As for `CS(=O)(=O)Nc1c(F)cc(CNC(=O)/C=C/c2ccc(C(F)(F)F)nc2CCc2ccccc2)cc1C(F)(F)F` [Example 189, N-(3-Fluoro-4-methanesulfonylamino-5-trifluoromethyl-benzyl)-3-(2-phenethyl-6-trifluoromethyl-pyridin-3-yl)-acrylamide], the figure is 6.40; as for `C#Cc1cc(CNC(=O)/C=C/c2ccc(C(F)(F)F)nc2OCC(F)(F)F)cc(F)c1NS(C)(=O)=O` [Example 84, N-(3-Ethynyl-5-fluoro-4-methansulfonylamino-benzyl)-3-[2-(2,2,2-trifluoro-ethoxy)-6-trifluoromethyl-pyridin-3-yl]-acrylamide], 6.62. `C#Cc1cc(CNC(=O)/C=C/c2ccc(C(C)(C)C)nc2OC)cc(F)c1NS(C)(=O)=O` [Example 11, 3-(6-tert-Butyl-2-methoxy-pyridin-3-yl)-N-(3-ethynyl-5-fluoro-4-methanesulfonylamino-benzyl)-acrylamide]: the negative logarithm of the IC50 (pIC50) is 6.54. As for `C#Cc1cc(CNC(=O)/C=C/c2ccc(C(F)(F)F)nc2NCC)cc(F)c1NS(C)(=O)=O` [Example 249, 3-(2-Ethylamino-6-trifluoromethyl-pyridin-3-yl)-N-(3-ethynyl-5-fluoro-4-methanesulfonylamino-benzyl)-acrylamide], the figure is 7.60; as for `CCCCNc1nc(C(F)(F)F)ccc1/C=C/C(=O)N[C@@H](C)c1cc(F)c(NS(C)(=O)=O)c(F)c1` [Example 240, (S)-3-(2-Butylamino-6-trifluoromethyl-pyridin-3-yl)-N-[(1S)-(3,5-difluoro-4-methanesulfonylamino-phenyl)-ethyl]-acrylamide], 6.70. As for `C#Cc1cc(CNC(=O)/C=C/c2cnc(OC)cc2C(F)(F)F)cc(F)c1NS(C)(=O)=O` [Example 41, N-(3-Ethynyl-5-fluoro-4-methanesulfonylaminobenzyl)-3-(6-methoxy-4-trifluoromethylpyridin-3-yl)acrylamide], the figure is 5.80; as for `Cc1cc(CNC(=O)/C=C/c2ccc(C(F)(F)F)nc2-c2cccc(F)c2)cc(F)c1NS(C)(=O)=O` [Example 180, N-(3-Fluoro-4-methanesulfonylamino-5-methyl-benzyl)-3-[2-(3-fluoro-phenyl)-6-trifluoromethyl-pyridin-3-yl]-acrylamide], 6.34. For `Cc1cc(CNC(=O)/C=C/c2ccc(C(F)(F)F)nc2CCc2ccccc2)ccc1NS(C)(=O)=O` [Example 172, N-(4-Methanesulfonylamino-3-methyl-benzyl)-3-(2-phenethyl-6-trifluoromethyl-pyridin-3-yl)-acrylamide], the pIC50 is 7.16. As for `C#Cc1cc(CNC(=O)CCc2ccc(C(F)(F)F)nc2N2CCCC2)cc(F)c1NS(C)(=O)=O` [Example 91, N-(3-Ethynyl-5-fluoro-4-methanesulfonylamino-benzyl)-3-(2-pyrrolidin-1-yl-6-trifluoromethyl-pyridin-3-yl)-propionamide], the figure is 6.24.
